Assay in all cases: DTP human tumour cell line panel, 48 h
The subject of assay [1] is EKVX.
Assay [2] has as its system HCC 2998.
The subject of assay [3] is HOP-62.
The test system of assay [4] is HT-29.
The test system of assay [5] is KM-20L2.
Assay [6] has as its system KM12.
Assay [7] relates to LOX IMVI.
Assay [8] concerns NCI-H226.
In assay [9] the test system is OVCAR-8.
Assay [10] deals with SF-268.
Assay [11] deals with SF-539.
For assay [12], the system named is SK-MEL-28.
Assay [13] deals with SNB-75.
For assay [14], the system named is SW-620.
For assay [15], the system named is UACC-62.
The subject of assay [16] is HOP-92.
For assay [17], the system named is MDA-MB-231.
Assay [18] deals with NCI/ADR-RES.
Assay [19] concerns PC-3.
Assay [20] deals with T47D.

As a reminder, the GI50 is the concentration at which growth is held to half of that of the control.

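A five-concentration, 48-hour dose response in 96-well plates underlies each endpoint, interpolated linearly between surrounding concentrations. GI50 marks 50% less growth.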 The source made the active and inactive calls. Rule as the data show it: active = GI50 up to about 1.1 µM and inactive = higher. Bounds are passed on as bounds.

As to `O=c1[nH]c2nc3ccccc3c(=O)n2nc1Cc1ccccc1`, the GI50 in assay [1] is > 100 µM (inactive); in [2], > 100 µM (inactive); in assay [3], 16.3 µM (inactive); in assay [4], > 100 µM (inactive); in assay [5], > 100 µM (inactive); in [6] it was > 100 µM (inactive). The GI50 in assay [7] is > 100 µM (inactive); in [8], 94.6 µM (inactive); in assay [9], > 100 µM (inactive); in assay [10], > 100 µM (inactive); in [11], > 100 µM (inactive); in [12] it was > 100 µM (inactive). In addition, the GI50 in assay [13], in [14] and in assay [15] was > 100 µM (inactive) each time.
For `COc1ccc(C2C(Cl)C(=O)N2n2cnc3ccccc3c2=O)cc1` (configuration not stated), the GI50 is 50.7 µM (inactive) in assay [1]; > 100 µM (inactive) in assay [2]; > 100 µM (inactive) in assay [3]; > 100 µM (inactive) in [4]; > 100 µM (inactive) in assay [5]; > 100 µM (inactive) in assay [6]. Besides, the GI50 in assay [7] was 77.6 µM (inactive); in assay [8], > 100 µM (inactive); in [9] it was 51.5 µM (inactive); in assay [10], 87.9 µM (inactive); in assay [12], > 100 µM (inactive); in [13] it was 29.4 µM (inactive). In addition, the GI50 in assay [14] and in assay [15] was > 100 µM (inactive) throughout.
On to `N#Cc1cccc(C2SCc3nc4ccccc4n32)c1` (configuration not stated), for which the GI50 in assay [1] was 67.6 µM (inactive); in assay [3], > 100 µM (inactive); in assay [16] it was 36.3 µM (inactive); in assay [4], > 100 µM (inactive); in assay [5], > 100 µM (inactive); in assay [6], > 100 µM (inactive). Also, the GI50 in assay [7] is > 100 µM (inactive); in assay [8], 28.9 µM (inactive); in [9], > 100 µM (inactive); in [10], > 100 µM (inactive); in assay [11] it was > 100 µM (inactive); in [12], > 100 µM (inactive). Besides, the GI50 in assay [14] was > 100 µM (inactive); in [15] it was 37.2 µM (inactive).
For the compound `COC(=O)C(=O)C(/C(=N/N)C(=O)Nc1ccccc1C(N)=O)c1nc2ccc([N+](=O)[O-])cc2nc1O` (configuration not stated), the GI50 in assay [1] is 18.4 µM (inactive); in assay [2], > 100 µM (inactive); in [3], > 100 µM (inactive); in assay [4], > 100 µM (inactive); in assay [5], > 100 µM (inactive); in assay [6], > 100 µM (inactive). In addition, the GI50 in [7] is > 100 µM (inactive); in assay [8], 29.3 µM (inactive); in assay [9] it was > 100 µM (inactive); in [10], > 100 µM (inactive); in assay [11], > 100 µM (inactive); in [12], > 100 µM (inactive). Moreover, the GI50 in assay [14] and in [15] was > 100 µM (inactive) in each case.
As to `Nc1nc2c(ncn2CCOC(c2ccccc2)P(=O)(O)O)c(=O)[nH]1` (configuration not stated), the GI50 in assay [1], in assay [2], in assay [4], in assay [5], in assay [6] and in assay [7] was > 100 µM (inactive) each time. For the same compound, the GI50 in assay [8], in [9], in assay [10], in assay [11], in [12] and in [13] was > 100 µM (inactive) throughout. The GI50 in [14] and in [15] was > 100 µM (inactive) in each case.
Take `NC(=O)c1csc(C2(O)COC(CO)C2O)n1` (configuration not stated): the GI50 in assay [1], in assay [2], in assay [3], in assay [16], in assay [4] and in [6] was > 100 µM (inactive) in each case. Also, the GI50 in assay [7], in [17], in assay [8], in assay [18], in assay [9] and in assay [19] was > 100 µM (inactive) each time. The GI50 in assay [10], in [11], in assay [12], in assay [13], in [14] and in assay [20] was > 100 µM (inactive) in each case. Also, the GI50 in assay [15] was > 100 µM (inactive).
As to `COc1ccc(/C=c2/[nH]c(=O)/c(=C\c3ccc(OCc4ccccc4)cn3)[nH]c2=O)cc1`, the GI50 is > 100 µM (inactive) in assay [1]; > 100 µM (inactive) in assay [2]; 43 µM (inactive) in assay [3]; 23.2 µM (inactive) in [16]; 50.5 µM (inactive) in assay [4]; 47.1 µM (inactive) in assay [6]. In addition, the GI50 is 82.4 µM (inactive) in [7]; > 100 µM (inactive) in [17]; 67.9 µM (inactive) in assay [8]; 58.1 µM (inactive) in assay [18]; 98.2 µM (inactive) in [9]; > 100 µM (inactive) in assay [19]. Also, the GI50 is 41.2 µM (inactive) in [10]; 32.4 µM (inactive) in assay [11]; > 100 µM (inactive) in [12]; 19.3 µM (inactive) in assay [13]; 62.4 µM (inactive) in assay [14]; > 100 µM (inactive) in assay [20]. Besides, the GI50 in assay [15] was > 100 µM (inactive).
As to `CC1=C(O)C(=O)C=C2C1=CC=C1[C@@]2(C)CC[C@@]2(C)[C@@H]3C[C@](C)(C(=O)O)CC[C@]3(C)CC[C@]12C` [CELASTROL], the GI50 in assay [1] was 0.0471 µM (active); in assay [2], 0.0306 µM (active); in assay [3], 0.237 µM (active); in [16], 0.0101 µM (active); in [4], 0.033 µM (active); in [6] it was 0.169 µM (active). Moreover, the GI50 in assay [7] is 0.0182 µM (active); in assay [17], 0.021 µM (active); in assay [8], 0.16 µM (active); in [18] it was 0.0255 µM (active); in [9], 0.0226 µM (active); in [19], 0.0393 µM (active). The GI50 was 0.0446 µM (active) in assay [10]; 0.0811 µM (active) in [11]; 0.0164 µM (active) in assay [12]; 0.132 µM (active) in [13]; 0.0199 µM (active) in assay [14]; 0.0198 µM (active) in [20]. In addition, the GI50 in assay [15] was 0.0237 µM (active).
On to `CCCC(O)c1cn(C(NC(=O)c2ccccc2)P(=O)(OCC)OCC)nn1` (configuration not stated), for which the GI50 in assay [1], in assay [2], in [3], in assay [16], in assay [4] and in assay [6] was > 100 µM (inactive) in each case. The GI50 in [7], in [17], in assay [8], in assay [18], in assay [9] and in [19] was > 100 µM (inactive) each time. The GI50 in assay [10], in assay [11], in assay [12], in [13], in assay [14] and in assay [20] was > 100 µM (inactive) in each case. Also, the GI50 in [15] was 39.4 µM (inactive).
Turning to `CCCCCCCCCCCCCCCCNc1ccn(C2CC(O)C(COC(c3ccccc3)(c3ccccc3)c3ccc(OC)cc3)O2)c(=O)n1` (configuration not stated), the GI50 in [1] is > 100 µM (inactive); in assay [2] it was 83.6 µM (inactive); in assay [3], > 100 µM (inactive); in assay [16], > 100 µM (inactive); in assay [4], > 100 µM (inactive); in assay [6], > 100 µM (inactive). Moreover, the GI50 in assay [7], in assay [17], in assay [8], in assay [18], in assay [9] and in assay [19] was > 100 µM (inactive) in each case. For the same compound, the GI50 in [10], in [11], in assay [12], in assay [13], in assay [14] and in assay [20] was > 100 µM (inactive) each time. The GI50 in assay [15] is > 100 µM (inactive).
For `COc1ccc(OC)c(CCc2cc(OC)c(OC)cc2C)c1`, the GI50 was 84.9 µM (inactive) in assay [1]; 27.5 µM (inactive) in assay [2]; 49.1 µM (inactive) in [3]; 28.4 µM (inactive) in [4]; 49.8 µM (inactive) in assay [5]; 0.63 µM (active) in assay [6]. Besides, the GI50 in assay [9] was 48.5 µM (inactive); in assay [10] it was 42 µM (inactive); in [12] it was 9.38 µM (inactive); in assay [13], 16.8 µM (inactive); in assay [14], 5.6 µM (inactive); in [15], 25.2 µM (inactive).
Take `Cn1c(-c2cccs2)cc(-c2cccs2)c1-c1cccs1`: the GI50 in assay [1] was 39.2 µM (inactive); in [2], 37.8 µM (inactive); in [3], > 100 µM (inactive); in assay [16], > 100 µM (inactive); in assay [4], > 100 µM (inactive); in [6], 35.7 µM (inactive). The GI50 in assay [7] is 35.8 µM (inactive); in [17] it was 98.9 µM (inactive); in assay [8], > 100 µM (inactive); in assay [18] it was > 100 µM (inactive); in [9], > 100 µM (inactive); in [19] it was > 100 µM (inactive). In addition, the GI50 in assay [10] was > 81.8 µM (inactive); in assay [11], > 100 µM (inactive); in assay [12] it was > 100 µM (inactive); in assay [13], 53.3 µM (inactive); in [14], > 100 µM (inactive); in assay [20], 2.78 µM (inactive). Also, the GI50 in assay [15] is 11.9 µM (inactive).
